Consider three compounds from article PMC4978154, “Phase I metabolites of mephedrone display biological activity as substrates at monoamine transporters” (British Journal of Pharmacology, 2016).

The target of assay [1] is T1, hDAT (Homo sapiens, UniProt Q01959).
T1 construct: expressed in transfected cells
Nature of the assay: Transporter release (superfusion) assay in HEK293 cells expressing hDAT. The class given is cell-based. The following applies: test drug 10 μM, monensin 10 μM; post hoc Bonferroni. The protocol: The generation of HEK293 cells stably expressing the human isoforms of DAT (hDAT) and NET (hNET) was carried out as described previously (Scholze et al., 2002). For SERT, the human isoform (hSERT) was cloned in frame with yellow fluorescent protein (Schmid et al., 2001). The generation of a stable cell line was performed as described by Hilber and colleagues (Hilber et al., 2005). HEK293 cells were maintained in humidified atmosphere (5% CO2, 37°C) in DMEM, supplemented with 10% heat‐inactivated FBS and penicillin (100 u 100 mL^−1) and streptomycin (100 μg 100 mL^−1). Selection pressure was maintained by adding geneticin (50 μg·mL^−1) to the cell culture media.
Superfusion experiments were performed as described previously (Scholze et al., 2002). Briefly, HEK293 cells expressing the desired transporter were seeded at a density of 40 000 cells per well onto poly‐D‐lysine‐coated 5 mm glass cover slips in 96‐well plates 24 h prior to the experiment. Cells were preloaded with [^3H]‐MPP^+ (0.1 μM, hDAT and hNET) or [^3H]‐5‐HT (0.4 μM, hSERT) for 20 min at 37°C in a final volume of 100 μL per well. Subsequently, glass coverslips were transferred into small superfusion chambers (volume of 200 μL) and superfused with KHB at 25°C with a superfusion rate of 0.7 mL·min^−1 for 40 min to establish a stable basal efflux. After washout, the collection of 2‐min fractions was initiated. After the first three basal fractions, monensin (10 μM) or solvent was added for four fractions. Consequently, the cells were challenged with test drugs (10 μM) for five fractions in the presence or absence of monensin. Finally, the cells were lysed in 1% SDS to determine the total radioactivity. Radioactivity per fraction was assessed by a liquid scintillation counter and expressed as fractional release, that is, the percentage of released ^3H in relation to total ^3H present at the beginning of the fraction (Sitte et al., 2000). For analysis, release was expressed as AUC.
(§1) Calculations were performed using Microsoft Excel® 2010 (Microsoft Corporation, Redmond, WA, USA) and GRAPHPAD PRISM 5.0. (GraphPad Software Inc., La Jolla, CA, USA). IC50 values for uptake inhibition and EC50 values for release were determined by nonlinear regression fits. Release data expressed as AUC were analysed by one‐way ANOVA followed by Bonferroni's multiple comparison test. Microdialysis and locomotor data were analysed by two‐way ANOVA (drug treatment × time) followed by Bonferroni's test. The effect of monensin treatment on basal efflux of tritiated substrate was analysed with the Mann–Whitney test. P values less than 0.05 (i.e. P < 0.05) were considered significant. The data and statistical analysis comply with the recommendations on experimental design and analysis in pharmacology (Curtis et al., 2015).
Data from uptake inhibition assays cannot distinguish whether test drugs act as non‐transported inhibitors or transportable substrates, which evoke release (Scholze et al., 2000; Sitte et al., 2000; Baumann et al., 2013). Therefore, mephedrone and its metabolites were tested in release assays to further explore their interaction with transporters. The release assays were performed with the same transporter‐expressing HEK293 cell lines described above and used a superfusion system (Sitte et al., 2000). As described previously, efflux of preloaded [^3H]‐MPP^+ or [^3H]‐5‐HT was monitored in the presence or absence of monensin (10 μM) (Scholze et al., 2000). […]

For assay [2], the system named is extracellular dopamine in rat nucleus accumbens. Nature of the assay: Microdialysis in rat nucleus accumbens, dialysate dopamine. It counts as in vivo. The following applies: versus saline. The protocol:
In vivo microdialysis procedures were carried out as previously described with minor modifications (Baumann et al., 2012). Briefly, male rats anaesthetized with sodium pentobarbital (60 mg·kg^−1, i.p.) received surgically implanted jugular catheters, and intracerebral guide cannulae aimed at the nucleus accumbens (AP +1.6 mm, ML −1.7 mm relative to bregma; −6.2 mm relative to dura) (Paxinos and Watson, 2007). After a 7–10 day recovery, each rat was placed into a chamber equipped with photobeams for the detection of motor parameters (TruScan, Harvard Apparatus, Holliston, MA, USA) and allowed to acclimatize overnight. Food and water were available ad libitum during the acclimatization period. On the following morning, catheters were attached to PE 50 extension tubes, and 0.5 × 2 mm microdialysis probes (CMA/12, Harvard Apparatus, Holliston, MA, USA) were inserted into the guide cannulae. Ringers' solution (150 mM NaCl, 2.8 mM KCl and 2.0 mM CaCl2) was perfused through the probes at 0.6 μL·min^−1 for 3 h. To commence experiments, dialysate samples ([…]) were collected at 20 min intervals, and drug or saline treatments were given after three baseline samples were obtained. Rats received two sequential i.v. injections of mephedrone or its metabolites, with 1 mg·kg^−1 administered at time zero, followed by 3 mg·kg^−1 60 min later. Saline was administered using the same schedule in a separate group of rats. Dialysate concentrations of dopamine and 5‐HT were quantified using HPLC coupled to electrochemical detection (Baumann et al., 2012). Chromatographic data were exported to an Empower software system (Waters, Inc., Milford, MA, USA) for peak identification, integration and analysis.
Correct probe placements were assessed after the microdialysis experiments. Rats were killed by CO2 narcosis then decapitated. Brains were quickly removed and immersion fixed in 10% paraformaldehyde for 1 week. Subsequently, brains were sectioned on a cryostat, and the location of each probe tip was verified by inspection of photographic images of the brain taken with a digital camera using the macro lens setting.
as §1

The mark [3] stands for this setting: 3 mg·kg−1 i.v. (60 min after 1 mg·kg−1).

Molecules are shown by their SMILES.

T1 sequence (Q01959 whole entry): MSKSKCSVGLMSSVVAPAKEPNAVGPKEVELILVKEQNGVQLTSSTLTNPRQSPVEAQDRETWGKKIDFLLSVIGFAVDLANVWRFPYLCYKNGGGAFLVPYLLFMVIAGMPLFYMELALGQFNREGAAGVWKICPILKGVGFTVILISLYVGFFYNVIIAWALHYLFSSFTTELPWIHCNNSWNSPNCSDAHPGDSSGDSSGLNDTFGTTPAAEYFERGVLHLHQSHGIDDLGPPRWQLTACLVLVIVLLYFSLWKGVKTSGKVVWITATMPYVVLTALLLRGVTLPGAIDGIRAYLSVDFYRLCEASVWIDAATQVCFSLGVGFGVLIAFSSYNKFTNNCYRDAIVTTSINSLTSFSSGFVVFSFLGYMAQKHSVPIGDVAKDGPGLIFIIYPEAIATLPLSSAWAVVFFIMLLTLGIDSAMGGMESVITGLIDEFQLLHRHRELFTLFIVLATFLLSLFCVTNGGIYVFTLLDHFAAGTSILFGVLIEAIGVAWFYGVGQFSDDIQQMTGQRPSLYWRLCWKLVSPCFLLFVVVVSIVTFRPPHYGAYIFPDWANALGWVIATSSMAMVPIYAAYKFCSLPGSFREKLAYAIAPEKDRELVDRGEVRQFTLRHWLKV

Regarding `CNC(C)C(=O)c1ccc(CO)cc1.Cl` (centres unmarked) [4‐OH‐mephedrone, 1‐(4‐(hydroxymethyl)phenyl)‐2‐(methylamino)propan‐1‐one hydrochloride], in assay [1], the “enhancement by monensin of drug-evoked [3H]-MPP+ release at hDAT (AUC)” value (from here on “enhancement by monensin of drug-evoked”) is recorded as “significant”. For the same compound, the “effect on dialysate dopamine” value in assay [2] (1 mg·kg−1 i.v.) and in assay [2] (setting [3]) was “no significant impact” each time.

Consider `CNC(C)C(=O)c1ccc(C)cc1.Cl` (centres unmarked) [Mephedrone, 2‐Methylamino‐1‐(p‐tolyl)propan‐1‐one hydrochloride], for which, in assay [1], the “enhancement by monensin of drug-evoked” value is “significant”. Besides, the “effect on dialysate dopamine” value in assay [2] (1 mg·kg−1 i.v.) is on record as “increased dopamine”; in assay [2] (setting [3]) it was “elevated dopamine”.

On to `Cc1ccc(C(=O)C(C)N)cc1.Cl` (centres unmarked) [Nor‐mephedrone, 2‐amino‐1‐(p‐tolyl)propan‐1‐one hydrochloride], for which the “enhancement by monensin of drug-evoked” value in assay [1] is “significant”. The “effect on dialysate dopamine” value in assay [2] (setting [3]) is reported as “elevated dopamine”.
